Measured values as given in patent US20050153943A1, “Methods of simultaneously treating mucositis and fungal infection” (priority 2002, published 2005).

Key:
Experiment in all cases: Fungal growth on SABHI agar containing CMT (Example 38)
Type in all cases: cell-based
[1] = tested on: Aspergillus fumigatus ATCC 1022; conditions: for Growth at 25 μg/ml compared to control at 24 hrs incubation / Growth at 25 μg/ml compared to control at 48 hours: 30° C., growth grade; for Anti-fungal activity (summary in words): 25 μg/ml agar, Example 38
Protocol: (§1) The following fungi were inoculated onto potato dextrose agar (PDA) from stock cultures and incubated aerobically at 30° C.: Aspergillus [NT] 1022, Penicillium sp. (laboratory isolate), Candida albicans, ATCC 14053, and Rhizopus sp. […] The conidia were suspended in 0.9% saline and the turbidity was adjusted to match a 0.5 MacFarland standard (equivalent to approximately 1.5×10^8 cells). Candida albicans was suspended in saline and adjusted to 0.5 MacFarland in a similar manner. These suspensions were diluted 1:100 in sterile 0.9% saline. SABHI Agar (Difco) pH 7.0 was prepared in 100 ml amounts and sterilized at 121° C. for 15 min. […] SABHI Agar plates of each CMT and SAHBI agar without CMT using dimethylsulphoxide (DMSO) as a control were inoculated with 10 μl of conidia suspension of Aspergillus fumigatus, Penicillium sp. and Rhizopus sp. and 10 μl suspension of Candida albicans prepared as described above. The plates were then incubated aerobically for 24 hour and for 48 hours at 30° C. The results are set forth in Table 1 (24 hr. incubation) and Table 2 (48 hr. incubation). [table]

[2] = tested on: Candida albicans, ATCC 14053; conditions: for Growth at 25 μg/ml compared to control at 24 hrs incubation / Growth at 25 μg/ml compared to control at 48 hours: 30° C., growth grade; for Anti-fungal activity (summary in words): 25 μg/ml agar, Example 38
Protocol: as §1

[3] = tested on: Penicillium sp. (laboratory isolate); conditions: for Growth at 25 μg/ml compared to control at 24 hrs incubation / Growth at 25 μg/ml compared to control at 48 hours: 30° C., growth grade; for Anti-fungal activity (summary in words): 25 μg/ml agar, Example 38
Protocol: as §1

Rhizopus sp. = conditions: for Growth at 25 μg/ml compared to control at 24 hrs incubation / Growth at 25 μg/ml compared to control at 48 hours: 30° C., growth grade
Protocol: as §1

With “4-Dedimethylamino-7-dimethylamino-6-demethyl-6-deoxy-9-ethoxythiocarbonylthio-tetracycline sulfate [Example 7]” the “Growth at 25 μg/ml compared to control at 24 hrs incubation” value [1] was 0 (complete inhibition of growth.), the “Growth at 25 μg/ml compared to control at 48 hours” value [1] was 4 (Level of growth in the absence of anti-fungal agent (control).) and the “Growth at 25 μg/ml compared to control at 24 hrs incubation” value [2] was 0 (complete inhibition of growth.). For the same compound, the “Growth at 25 μg/ml compared to control at 48 hours” value [2] was 0 (complete inhibition of growth.), the “Growth at 25 μg/ml compared to control at 24 hrs incubation” value [3] was 3 (25% reduction in growth of colonies compared to control.) and the “Growth at 25 μg/ml compared to control at 48 hours” value [3] was 4 (Level of growth in the absence of anti-fungal agent (control).). The “Growth at 25 μg/ml compared to control at 24 hrs incubation” value (Rhizopus sp.) was 4 (Level of growth in the absence of anti-fungal agent (control).) and the “Growth at 25 μg/ml compared to control at 48 hours” value (Rhizopus sp.) was 3 (25% reduction in growth of colonies compared to control.).

In the case of `CC1(O)c2c(Cl)ccc(O)c2C(=O)C2=C(O)C3(O)C(=O)C(C(N)=O)=C(O)CC3CC21` (stereo not drawn) [COL 4, 7-chloro-4-dedimethylaminotetracycline], the “Anti-fungal activity (summary in words)” value [1] is reported as “demonstrated activity” and the “Anti-fungal activity (summary in words)” value [3] is reported as “demonstrated activity”.

In the case of `CC1(O)c2cccc(O)c2C(=O)C2=C(O)C3C(=O)C(C(N)=O)=C(O)CC3CC21` (stereo not drawn) [COL 7, 4-dedimethylamino-12α-deoxytetracycline], the “Anti-fungal activity (summary in words)” value [2] is reported as “strong activity”.

`NC(=O)C1=C(O)CC2CC3Cc4c([N+](=O)[O-])ccc(O)c4C(=O)C3=C(O)C2(O)C1=O` (stereo not drawn) [COL 302, 7-nitro-6-demethyl-6-deoxy-4-dedimethylaminotetracycline] was tested, and the “Growth at 25 μg/ml compared to control at 24 hrs incubation” value [1] was 0 (complete inhibition of growth.), the “Growth at 25 μg/ml compared to control at 48 hours” value [1] was 4 (Level of growth in the absence of anti-fungal agent (control).) and the “Growth at 25 μg/ml compared to control at 24 hrs incubation” value [2] was 4 (Level of growth in the absence of anti-fungal agent (control).). For the same compound, the “Growth at 25 μg/ml compared to control at 48 hours” value [2] was 4 (Level of growth in the absence of anti-fungal agent (control).), the “Growth at 25 μg/ml compared to control at 24 hrs incubation” value [3] was 3 (25% reduction in growth of colonies compared to control.) and the “Growth at 25 μg/ml compared to control at 48 hours” value [3] was 4 (Level of growth in the absence of anti-fungal agent (control).). The “Growth at 25 μg/ml compared to control at 24 hrs incubation” value (Rhizopus sp.) was 4 (Level of growth in the absence of anti-fungal agent (control).) and the “Growth at 25 μg/ml compared to control at 48 hours” value (Rhizopus sp.) was 4 (Level of growth in the absence of anti-fungal agent (control).).

With `NC(=O)C1=C(O)CC2CC3Cc4ccc([N+](=O)[O-])c(O)c4C(=O)C3=C(O)C2(O)C1=O` (stereo not drawn) [COL 303, 9-nitro-6-demethyl-6-deoxy-4-dedimethylaminotetracycline] the “Growth at 25 μg/ml compared to control at 48 hours” value [1] was 4 (Level of growth in the absence of anti-fungal agent (control).), the “Growth at 25 μg/ml compared to control at 24 hrs incubation” value [2] was 3 (25% reduction in growth of colonies compared to control.) and the “Growth at 25 μg/ml compared to control at 48 hours” value [2] was 4 (Level of growth in the absence of anti-fungal agent (control).). The “Growth at 25 μg/ml compared to control at 24 hrs incubation” value [3] was 3 (25% reduction in growth of colonies compared to control.), the “Growth at 25 μg/ml compared to control at 48 hours” value [3] was 4 (Level of growth in the absence of anti-fungal agent (control).) and the “Growth at 25 μg/ml compared to control at 24 hrs incubation” value (Rhizopus sp.) was 4 (Level of growth in the absence of anti-fungal agent (control).). For the same compound, the “Growth at 25 μg/ml compared to control at 48 hours” value (Rhizopus sp.) was 4 (Level of growth in the absence of anti-fungal agent (control).).

For `CN(C)c1ccc2c(c1O)C(=O)C1=C(O)C3(O)C(=O)C(C(N)=O)=C(O)CC3CC1C2` (stereo not drawn) [COL 306, 9-dimethylamino-6-demethyl-6-deoxy-4-dedimethylaminotetracycline], the “Growth at 25 μg/ml compared to control at 24 hrs incubation” value [1] was 1 (75% reduction in growth in colonies compared to control.), the “Growth at 25 μg/ml compared to control at 48 hours” value [1] was 4 (Level of growth in the absence of anti-fungal agent (control).) and the “Growth at 25 μg/ml compared to control at 24 hrs incubation” value [2] was 3 (25% reduction in growth of colonies compared to control.). For the same compound, the “Growth at 25 μg/ml compared to control at 48 hours” value [2] was 4 (Level of growth in the absence of anti-fungal agent (control).), the “Growth at 25 μg/ml compared to control at 24 hrs incubation” value [3] was 3 (25% reduction in growth of colonies compared to control.) and the “Growth at 25 μg/ml compared to control at 48 hours” value [3] was 4 (Level of growth in the absence of anti-fungal agent (control).). The “Growth at 25 μg/ml compared to control at 24 hrs incubation” value (Rhizopus sp.) was 4 (Level of growth in the absence of anti-fungal agent (control).) and the “Growth at 25 μg/ml compared to control at 48 hours” value (Rhizopus sp.) was 4 (Level of growth in the absence of anti-fungal agent (control).).

In the case of `NC(=O)C1=C(O)CC2CC3Cc4ccc(N)c(O)c4C(=O)C3=C(O)C2(O)C1=O` (stereo not drawn) [COL 308, 9-amino-6-demethyl-6-deoxy-4-dedimethylaminotetracycline], the “Anti-fungal activity (summary in words)” value [1] is reported as “demonstrated activity”, the “Growth at 25 μg/ml compared to control at 24 hrs incubation” value [1] is reported as 0 (complete inhibition of growth.) and the “Growth at 25 μg/ml compared to control at 48 hours” value [1] is reported as 1 (75% reduction in growth in colonies compared to control.). The “Growth at 25 μg/ml compared to control at 24 hrs incubation” value [2] was 4 (Level of growth in the absence of anti-fungal agent (control).), the “Growth at 25 μg/ml compared to control at 48 hours” value [2] was 4 (Level of growth in the absence of anti-fungal agent (control).) and the “Anti-fungal activity (summary in words)” value [3] was “demonstrated activity”. The “Growth at 25 μg/ml compared to control at 24 hrs incubation” value [3] was 0 (complete inhibition of growth.), the “Growth at 25 μg/ml compared to control at 48 hours” value [3] was 0 (complete inhibition of growth.) and the “Growth at 25 μg/ml compared to control at 24 hrs incubation” value (Rhizopus sp.) was 4 (Level of growth in the absence of anti-fungal agent (control).). For the same compound, the “Growth at 25 μg/ml compared to control at 48 hours” value (Rhizopus sp.) was 4 (Level of growth in the absence of anti-fungal agent (control).).

`CN(C)CC(=O)Nc1ccc2c(c1O)C(=O)C1=C(O)C3(O)C(=O)C(C(N)=O)=C(O)CC3CC1C2` (stereo not drawn) [COL 309, 9-dimethylaminoacetamido-6-demethyl-6-deoxy-4-dedimethylaminotetracycline] was tested, and the “Growth at 25 μg/ml compared to control at 48 hours” value [1] was 4 (Level of growth in the absence of anti-fungal agent (control).), the “Growth at 25 μg/ml compared to control at 24 hrs incubation” value [2] was 4 (Level of growth in the absence of anti-fungal agent (control).) and the “Growth at 25 μg/ml compared to control at 48 hours” value [2] was 4 (Level of growth in the absence of anti-fungal agent (control).). The “Growth at 25 μg/ml compared to control at 24 hrs incubation” value [3] was 3 (25% reduction in growth of colonies compared to control.), the “Growth at 25 μg/ml compared to control at 48 hours” value [3] was 4 (Level of growth in the absence of anti-fungal agent (control).) and the “Growth at 25 μg/ml compared to control at 24 hrs incubation” value (Rhizopus sp.) was 4 (Level of growth in the absence of anti-fungal agent (control).). The “Growth at 25 μg/ml compared to control at 48 hours” value (Rhizopus sp.) was 4 (Level of growth in the absence of anti-fungal agent (control).).

`O=C(NCN1CCNCC1)C1=C(O)CC2CC3Cc4cccc(O)c4C(=O)C3=C(O)C2(O)C1=O` (stereo not drawn) [COL 315, 2-CONHCH2-piperazin-1-yl-6-demethyl-6-deoxy-4-dedimethylaminotetracycline] was tested, and the “Anti-fungal activity (summary in words)” value [1] was “activity against all the fungi tested”, the “Growth at 25 μg/ml compared to control at 24 hrs incubation” value [1] was 0 (complete inhibition of growth.) and the “Growth at 25 μg/ml compared to control at 48 hours” value [1] was 0 (complete inhibition of growth.). The “Anti-fungal activity (summary in words)” value [2] was “activity against all the fungi tested”, the “Growth at 25 μg/ml compared to control at 24 hrs incubation” value [2] was 0 (complete inhibition of growth.) and the “Growth at 25 μg/ml compared to control at 48 hours” value [2] was 0 (complete inhibition of growth.). The “Anti-fungal activity (summary in words)” value [3] was “activity against all the fungi tested”, the “Growth at 25 μg/ml compared to control at 24 hrs incubation” value [3] was 0 (complete inhibition of growth.) and the “Growth at 25 μg/ml compared to control at 48 hours” value [3] was 0 (complete inhibition of growth.). For the same compound, the “Anti-fungal activity (summary in words)” value (Rhizopus sp.; 25 μg/ml agar, Example 38) was “activity against all the fungi tested”, the “Growth at 25 μg/ml compared to control at 24 hrs incubation” value (Rhizopus sp.) was 1 (75% reduction in growth in colonies compared to control.) and the “Growth at 25 μg/ml compared to control at 48 hours” value (Rhizopus sp.) was 1 (75% reduction in growth in colonies compared to control.).
